Measured values taken from ChEMBL document CHEMBL1201862, “PubChem BioAssay data set” (2004).
Activity calls are given as the source filed them. Rule as the data show it, for most assays here: actives have a measured EC50 and inactives only a lower limit.

Columns and labels:
[1] = tested on: Streptococcus sp. 'group A'; assay: growth inhibition of control SK(-) GAS strain, dose response, counter-screen for streptokinase expression inhibitor project, luminescence, kanamycin, BacTiterGlo, confirmation (AID 1900); type: functional, organism-based
[2] = target: T1, Streptokinase A (Streptococcus pyogenes serotype M1, UniProt P10520); assay: S. pyogenes streptokinase expression inhibitors, potency, dose response, plasminogen activation absorbance, OD405 (AID 1914); type: functional, Streptococcus pyogenes M1 GAS;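 also: secreted streptokinase activity via plasminogen activation per viability signal from cell pellet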
T1 sequence (P10520 whole entry): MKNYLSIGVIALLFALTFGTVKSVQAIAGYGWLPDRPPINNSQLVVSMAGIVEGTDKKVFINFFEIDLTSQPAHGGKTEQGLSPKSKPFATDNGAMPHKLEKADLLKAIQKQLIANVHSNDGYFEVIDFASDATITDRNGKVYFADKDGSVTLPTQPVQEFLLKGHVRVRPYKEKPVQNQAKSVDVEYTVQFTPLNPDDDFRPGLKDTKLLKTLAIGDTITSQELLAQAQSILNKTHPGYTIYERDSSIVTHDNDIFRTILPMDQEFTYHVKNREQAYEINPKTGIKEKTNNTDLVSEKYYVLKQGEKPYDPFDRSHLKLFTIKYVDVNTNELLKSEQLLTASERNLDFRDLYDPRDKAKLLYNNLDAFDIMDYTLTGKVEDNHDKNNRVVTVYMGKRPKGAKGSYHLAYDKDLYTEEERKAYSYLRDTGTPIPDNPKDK

[3] = tested on: Streptococcus; assay: Group A Streptococcus viability loss, dose response, counter-screen for streptokinase expression inhibitor project, luminescence, BacTiterGlo (AID 1915); type: functional, organism-based;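 also: potency for reduction of bacterial viability or growth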
[4] = target: T2, Corticotropin-releasing factor receptor 2/Corticotropin-releasing factor-binding protein (Homo sapiens, UniProt P24387+Q13324); assay: activators of CRF receptor 2 with binding protein – uHTS hits, confirmation (AID 602473); type: functional; conditions: read-out: EC50_Mean
T2 sequence (Q13324 whole entry): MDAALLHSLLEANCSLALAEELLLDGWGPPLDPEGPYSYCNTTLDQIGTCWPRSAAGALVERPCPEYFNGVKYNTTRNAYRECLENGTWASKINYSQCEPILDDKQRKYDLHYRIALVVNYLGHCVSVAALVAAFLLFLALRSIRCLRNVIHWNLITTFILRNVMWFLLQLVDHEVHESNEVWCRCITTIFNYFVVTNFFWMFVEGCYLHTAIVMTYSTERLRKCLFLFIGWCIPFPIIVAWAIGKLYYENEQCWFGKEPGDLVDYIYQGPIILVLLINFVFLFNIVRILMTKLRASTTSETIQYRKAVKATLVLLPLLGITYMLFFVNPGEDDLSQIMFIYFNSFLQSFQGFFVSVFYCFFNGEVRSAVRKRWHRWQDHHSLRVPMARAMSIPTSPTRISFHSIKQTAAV
T2 sequence (P24387 whole entry): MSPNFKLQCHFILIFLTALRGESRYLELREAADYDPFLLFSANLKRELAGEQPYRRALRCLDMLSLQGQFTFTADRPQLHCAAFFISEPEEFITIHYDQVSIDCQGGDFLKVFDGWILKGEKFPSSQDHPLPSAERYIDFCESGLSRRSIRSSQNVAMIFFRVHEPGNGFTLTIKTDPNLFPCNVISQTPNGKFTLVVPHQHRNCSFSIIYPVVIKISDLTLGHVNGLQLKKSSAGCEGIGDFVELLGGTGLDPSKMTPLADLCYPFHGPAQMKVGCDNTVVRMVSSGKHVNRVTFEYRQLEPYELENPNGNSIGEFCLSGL

[5] = tested on: H9c2; assay: cells; type: functional, cell-based; conditions: Rattus norvegicus, H9c2, Myocardium;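 also: confirmatory concentration-response retest of ultra-high-throughput screening hits for modulation of myocardial damage; cell death induced by hydrogen peroxide oxidative stress; compound pretreatment for 60 min then peroxide exposure for 2 h; potency is for protecting the cells against peroxide damage rather than for killing them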
[6] = target: T2, Corticotropin-releasing factor receptor 2/Corticotropin-releasing factor-binding protein; assay: Dose Response confirmation of uHTS hits for small molecule antagonists of the CRF-binding protein and CRF-R2 receptor complex.; type: functional; conditions: read-out: IC50_Mean
[7] = tested on: H4; assay: Luminescence Cell-Based Dose Response HTS to Identify Activators of 5'UTR Stem-Loop Driven Prion Protein mRNA Translation in H4 Neuroglioblastoma Cells. [Related pubchem assays: 1829 (Project Summary), 1814 (Primary HTS)]; type: functional; conditions: Homo sapiens
[8] = Luminescence Cell-Based Dose Response HTS to Identify Activators of Luciferase Translation or Activity in H4 […] Cells. [Related pubchem assays: 1829 (Project Summary), 1814 (Primary HTS)]; type: functional
[9] = NIH-3T3 fibroblast cytotoxicity, dose response, cytotoxicity control, cell-based, fluorescence, Alamar Blue, secondary assay (AID 2327); type: functional;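 also: NIH-3T3 mouse fibroblasts cultured with fluconazole at 8 µg/mL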
[10] = C. albicans growth with fluconazole, confirmation, fluorescence, retest (AID 2467); type: functional, cell-based
[11] = target: T3, RNA-binding protein pos-1 (Caenorhabditis elegans, UniProt G5EF15); assay: inhibitors of POS-1/mex-3 RNA binding, dose response, biochemical, fluorescence polarization (AID 1964);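 also: purified POS-1 fused to maltose binding protein made in E. coli; potency of compounds blocking POS-1 binding to fluorescent RNA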
T3 sequence (G5EF15 whole entry): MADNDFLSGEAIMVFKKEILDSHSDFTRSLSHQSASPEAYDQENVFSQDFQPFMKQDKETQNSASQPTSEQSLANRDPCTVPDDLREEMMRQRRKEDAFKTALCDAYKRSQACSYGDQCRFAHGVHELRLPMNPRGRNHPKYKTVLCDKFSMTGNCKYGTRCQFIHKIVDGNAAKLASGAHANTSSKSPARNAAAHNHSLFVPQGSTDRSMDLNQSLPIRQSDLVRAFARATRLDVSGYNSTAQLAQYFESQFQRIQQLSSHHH

[12] = target: T4, Zinc finger protein mex-5 (Caenorhabditis elegans, UniProt Q9XUB2); assay: MEX-5/TCR-2 RNA interaction inhibitors, dose response, biochemical, C. elegans, fluorescence polarization (AID 1960)
T4 sequence (Q9XUB2 whole entry): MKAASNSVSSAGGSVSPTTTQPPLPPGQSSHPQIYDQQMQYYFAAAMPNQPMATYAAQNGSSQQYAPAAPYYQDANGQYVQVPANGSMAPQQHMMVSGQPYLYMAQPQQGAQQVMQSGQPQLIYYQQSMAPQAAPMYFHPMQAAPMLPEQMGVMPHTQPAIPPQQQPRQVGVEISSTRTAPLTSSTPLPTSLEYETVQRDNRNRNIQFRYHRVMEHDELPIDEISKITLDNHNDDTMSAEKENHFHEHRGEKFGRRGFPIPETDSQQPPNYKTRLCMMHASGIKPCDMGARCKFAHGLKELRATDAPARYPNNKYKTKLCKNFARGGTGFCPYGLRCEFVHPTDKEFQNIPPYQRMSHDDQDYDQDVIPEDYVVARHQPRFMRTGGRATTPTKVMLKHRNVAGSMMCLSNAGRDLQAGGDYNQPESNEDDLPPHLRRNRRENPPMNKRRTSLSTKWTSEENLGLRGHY

## COc1cc(/C=C2\SC(Nc3cccnc3)=NC2=O)cc(OC)c1OC
[1]
  EC50: 36.8 µM (active)
[2]
  EC50: > 150 µM (not active)
[3]
  EC50: 68.5 µM (active)

## Cc1nn(C)cc1C(C(=O)NC1CCCCC1)N(C(=O)Cc1cccs1)c1ccc(Cl)cc1 (configuration not stated)
[4]
  EC50: 12 µM (active)
[5]
  IC50: 15.2 µM (active)

## COc1ccc2nc(O)c(CN(CC3CCCO3)S(=O)(=O)c3ccccc3F)cc2c1 (configuration not stated)
[5]
  IC50: 15.5 µM (active)

## O=C(NCCN1CCOCC1)c1cnn2c(-c3ccccc3)cc(-c3ccccc3)nc12
[5]
  IC50: > 79 µM (inactive)

## CSc1nc2cc(Cl)ccc2s1
[6]
  IC50: > 47.1 µM (inactive)
[4]
  EC50: > 53 µM (inactive)

## CC1CCN(C(=O)C2CCN(S(=O)(=O)c3cccnc3)CC2)CC1
[6]
  IC50: > 47.1 µM (inactive)
[4]
  EC50: > 53 µM (inactive)

## Nc1nc(CN2CCC(Cc3ccccc3)CC2)nc(Nc2ccccc2)n1
[1]
  EC50: 14.8 µM (active)
[2]
  EC50: > 150 µM (not active)
[3]
  EC50: > 150 µM (not active)

## CCCC(=O)NCCc1ccc(F)cc1
[1]
  EC50: > 150 µM (not active)
[2]
  EC50: > 150 µM (not active)
[3]
  EC50: > 150 µM (not active)

## C=C(C)CSc1nc2c(cc1C#N)CCC2
[6]
  IC50: > 47.1 µM (inactive)
[4]
  EC50: > 53 µM (inactive)

## O[C@@H]1CCCN2CCc3c([nH]c4ccccc34)[C@H]12
[1]
  EC50: > 150 µM (not active)
[2]
  EC50: > 150 µM (not active)
[3]
  EC50: > 150 µM (not active)

## Cc1ccn(C(=O)c2ccc(NC(=O)C3CCCCC3)cc2)n1
[6]
  IC50: > 47.1 µM (inactive)
[4]
  EC50: > 53 µM (inactive)

## CC(C)C/C=C1\CCc2c([nH]c3ccccc23)C1=O
[7]
  EC50: 45.4 µM (active)
[8]
  EC50: 27.8 µM (active)

## O=C(COc1ccc(Cl)cc1Cl)Nc1ccccc1NS(=O)(=O)c1cccs1
[6]
  IC50: > 47.1 µM (inactive)
[4]
  EC50: 33.1 µM (active)

## COC(=O)c1ccc(NC(=O)COC(=O)CSc2nc(C)cc(C)n2)cc1
[6]
  IC50: > 47.1 µM (inactive)
[4]
  EC50: > 53 µM (inactive)

## O=C(Nc1ccc(F)cc1)c1nc2c(nnn2Cc2cccc3ccccc23)c(=O)[nH]1
[2]
  EC50: > 150 µM (not active)

## CC(C)(C)NS(=O)(=O)c1ccc(NS(=O)(=O)Cc2ccccc2)cc1
[1]
  EC50: > 150 µM (not active)
[2]
  EC50: > 150 µM (not active)
[3]
  EC50: > 150 µM (not active)

## COc1ccc(N/C=C(\C#N)c2nc3ccccc3n2C)c(OC)c1
[5]
  IC50: > 79 µM (inactive)

## O=C(Nc1scc(-c2ccc(Br)cc2)c1C(=O)O)c1ccccc1F
[1]
  EC50: 2.83 µM (active)
[2]
  EC50: 9.9 µM (active)
[3]
  EC50: 11 µM (active)

## Cc1ccc(C(C)C)cc1OCC(=O)Nc1ccccc1N1CCCC1
[2]
  EC50: 14.1 µM (active)
[3]
  EC50: > 150 µM (not active)

## Cc1ccc(C(=O)Oc2ccc(Cl)c3cccnc23)cc1[N+](=O)[O-]
[5]
  IC50: > 79 µM (inactive)

## O=C(NNC(=O)c1cc2ccccc2cc1O)Nc1ccccc1F
[9]
  EC50: > 160 µM (inactive)
[10]
  EC50: > 38 µM (not active)

## COc1ccccc1Oc1c[nH]nc1-c1ccc(OCC(=O)NN)cc1O
[1]
  EC50: > 150 µM (not active)
[2]
  EC50: > 150 µM (not active)
[3]
  EC50: > 150 µM (not active)
[11]
  EC50: > 300 µM (not active)
[12]
  EC50: 120 µM (active)

## CCCCNC(=O)c1cn(-c2ccc(OCC)cc2)c(=O)c2cc(OC)c(OC)cc12
[5]
  IC50: 15.3 µM (active)

## COc1ccc(C(C(=O)NC2CCCCC2)N(Cc2cccs2)C(=O)Cc2c[nH]c3ccccc23)cc1OC (configuration not stated)
[6]
  IC50: > 47.1 µM (inactive)
[4]
  EC50: > 53 µM (inactive)
[5]
  IC50: > 79 µM (inactive)

## Cc1cccc(NC(=O)c2[nH]cnc2C(=O)NCCCCCCNC(=O)c2nc[nH]c2C(=O)Nc2cccc(C)c2)c1
[5]
  IC50: 14.4 µM (active)

## O=C(ONC1=NCCCCC1)c1cccc([N+](=O)[O-])c1
[9]
  EC50: > 150 µM (inactive)
[10]
  EC50: 2.12 µM (active)

## O=C(COC(=O)Cn1[nH]c(=O)c2ccccc2c1=O)Nc1ncc(Cl)cc1Cl
[5]
  IC50: > 79 µM (inactive)

## CCn1c(SCC(=O)N2CCCCC2)nc2c(c1=O)SCC2
[6]
  IC50: > 47.1 µM (inactive)
[4]
  EC50: > 53 µM (inactive)

## CCN(C[C@H]1N[C@@](Cc2ccccc2)(C(=O)OC)[C@H]2C(=O)N(C)C(=O)[C@@H]12)S(=O)(=O)c1ccc(OC)cc1
[5]
  IC50: 7.53 µM (active)

## Cc1cc(NC(=O)CN2C(=O)NC(CC(C)C)C2=O)no1 (configuration not stated)
[6]
  IC50: > 47.1 µM (inactive)
[4]
  EC50: > 53 µM (inactive)

## CN(CC(=O)Nc1cccc(F)c1)C(=O)Cc1nnc(O)c2ccccc12
[5]
  IC50: 25.6 µM (active)

## CC(C)c1ccc(/C=N/NC(=O)c2cc(-c3cccc([N+](=O)[O-])c3)[nH]n2)cc1
[6]
  IC50: > 47.1 µM (inactive)
[4]
  EC50: > 53 µM (inactive)

## CCO/C(O)=C1\C(C)=NC(C)=C(C(=O)OCCNC(=O)c2cccnc2)C1c1cccc([N+](=O)[O-])c1 (configuration not stated)
[5]
  IC50: > 79 µM (inactive)

## C=C(C)CNC(=S)N/N=C1\CCCCc2ccccc21
[9]
  EC50: 62.5 µM (active)
[10]
  EC50: 6.24 µM (active)

## COCCn1c(-c2ccccc2)cs/c1=N\c1cccnc1
[6]
  IC50: 22.3 µM (active)
[4]
  EC50: > 53 µM (inactive)

## Cc1ccsc1/C=N/NS(=O)(=O)c1ccc([N+](=O)[O-])cc1
[9]
  EC50: > 150 µM (inactive)
[10]
  EC50: 1.81 µM (active)

## CN(/C(=N/S(=O)(=O)c1cccs1)c1ccccc1)c1ccc(O)cc1
[9]
  EC50: > 150 µM (inactive)
[10]
  EC50: > 38 µM (not active)

## C[C@]12CC[C@H]3[C@@H](CC[C@H]4C[C@@H](O)CC[C@@]43C)[C@@H]1C[C@@H](O)C2
[5]
  IC50: > 79 µM (inactive)

## Cc1c(C#N)c(N)nc2c3c(sc12)NC(=O)CC3c1ccccc1 (configuration not stated)
[5]
  IC50: 32.6 µM (inactive)

## O=C1NCCN1CCNS(=O)(=O)c1cc(C(F)(F)F)cc(C(F)(F)F)c1
[9]
  EC50: > 150 µM (inactive)
[10]
  EC50: > 38 µM (not active)
